The source made the active and inactive calls. The calls are words filed in the database; no cut-off is given here.
Legend:
[1] = Stability in mouse plasma assessed as half life; assay type: ADME, cell-free
[2] = Stability in human plasma assessed as half life; assay type: ADME, cell-free
[3] = test system: NCI-H1703; assay: Induction of ferroptosis in human NCI-H1703 cells assessed as cell viability incubated for 72 hrs by CellTiter-Glo luminescent cell viability assay; assay type: functional, cell-based; settings: NCI-H1703, 72 h
[4] = test system: HT-1080; assay: Induction of ferroptosis in GPX4-dependent human HT-1080 cells assessed as cell viability incubated for 6 hrs in presence of 40% human plasma by time-course cell viability assay; assay type: functional, cell-based; settings: HT-1080, 6 h
[5] = test system: HT-1080; assay: Induction of ferroptosis in GPX4-dependent human HT-1080 cells assessed as cell viability incubated for […] by time-course cell viability assay; assay type: functional, cell-based
[6] = test system: WSUDLCL2; assay: Effect on tumor volume in human WSUDLCL2 cells subcutaneously inoculated in CB17 SCID-Beige mouse tumor model at 50 to 100 mg/kg, ip measured upto day 20; assay type: functional, organism-based; settings: dose 50-100 mg/kg
[7] = test system: HT-1080; assay: Induction of ferroptosis in GPX4-dependent human HT-1080 cells assessed as cell viability incubated for 24 hrs by time-course cell viability assay; assay type: functional, cell-based; settings: HT-1080, 24 h
[8] = test system: WSUDLCL2; assay: Induction of ferroptosis in human WSUDLCL2 cells assessed as cell viability incubated for 72 hrs by CellTiter-Glo luminescent cell viability assay; assay type: functional, cell-based
[9] = molecular target: Phospholipid hydroperoxide glutathione peroxidase GPX4 (Mus musculus) (UniProt O70325); assay: In vivo inhibition of GPX4 in SCID/Beige mouse assessed as increase in malondialdehyde level in plasma at 100 to 200 mg/kg, ip by TBAR assay; assay type: functional, organism-based; settings: dose 100-200 mg/kg
Chain of Phospholipid hydroperoxide glutathione peroxidase GPX4 (Mus musculus) (O70325 whole entry): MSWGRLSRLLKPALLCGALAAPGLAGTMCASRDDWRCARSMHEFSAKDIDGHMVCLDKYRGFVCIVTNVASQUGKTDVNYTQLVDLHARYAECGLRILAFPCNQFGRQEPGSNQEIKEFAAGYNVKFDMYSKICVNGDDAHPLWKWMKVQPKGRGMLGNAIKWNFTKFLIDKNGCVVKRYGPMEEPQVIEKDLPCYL

[10] = test system: HT-1080; assay: Induction of ferroptosis in GPX4-dependent human HT-1080 cells assessed as cell viability incubated for 3 hrs in presence of 40% human plasma by time-course cell viability assay; assay type: functional, cell-based; settings: HT-1080, 3 h
[11] = test system: WSUDLCL2; assay: Induction of ferroptosis in human WSUDLCL2 cells assessed as cell viability incubated for 72 hrs in presence of liproxstatin-1 by CellTiter-Glo luminescent cell viability assay; assay type: functional, cell-based
[12] = test system: WSUDLCL2; assay: Induction of ferroptosis in human WSUDLCL2 cells assessed as cell viability incubated for 72 hrs in presence of ferrostatin-1 by CellTiter-Glo luminescent cell viability assay; assay type: functional, cell-based
[13] = test system: NCI-H1703; assay: Induction of ferroptosis in human NCI-H1703 cells assessed as cell viability incubated for 72 hrs in presence of ferrostatin-1 by CellTiter-Glo luminescent cell viability assay; assay type: functional, cell-based; settings: NCI-H1703, 72 h
[14] = molecular target: Phospholipid hydroperoxide glutathione peroxidase GPX4 (Mus musculus) (UniProt O70325); assay: In vivo inhibition of GPX4 in SCID/Beige mouse assessed as fold increase in PTGS2 transcription in kidney homogenate at 100 to 200 mg/kg, ip by qPCR analysis relative to vehicle treated control; assay type: functional, organism-based; settings: dose 100-200 mg/kg
[15] = test system: HT-1080; assay: Induction of ferroptosis in GPX4-dependent human HT-1080 cells assessed as cell viability incubated for 6 hrs by time-course cell viability assay; assay type: functional, cell-based; settings: HT-1080, 6 h
[16] = test system: HT-1080; assay: Induction of ferroptosis in GPX4-dependent human HT-1080 cells assessed as cell viability incubated for 24 hrs in presence of 40% human plasma by time-course cell viability assay; assay type: functional, cell-based; settings: HT-1080, 24 h
[17] = test system: WSUDLCL2; assay: In vivo target engagement at GPX4 in human WSUDLCL2 cells subcutaneously inoculated in CB17 SCID-Beige mouse assessed as target engagement in tumor at 50 to 100 mg/kg, ip measured upto day 20 by Western blot analysis; assay type: functional, organism-based; settings: dose 50-100 mg/kg
[18] = test system: HT-1080; assay: Induction of ferroptosis in GPX4-dependent human HT-1080 cells assessed as cell viability incubated for 3 hrs by time-course cell viability assay; assay type: functional, cell-based; settings: HT-1080, 3 h
[19] = test system: HT-1080; assay: Induction of ferroptosis in GPX4-dependent human HT-1080 cells assessed as cell viability incubated for […] in presence of 40% human plasma by time-course cell viability assay; assay type: functional, cell-based
[20] = molecular target: Phospholipid hydroperoxide glutathione peroxidase GPX4 (Mus musculus) (UniProt O70325); assay: In vivo inhibition of GPX4 in SCID/Beige mouse assessed as increase in malondialdehyde level in kidney homogenate at 100 to 200 mg/kg, ip by TBAR assay; assay type: functional, organism-based; settings: dose 100-200 mg/kg
[21] = Metabolic stability in mouse liver microsomes assessed as unbound intrinsic clearance; assay type: ADME, Microsome
[22] = Unbound fraction in human plasma; assay type: ADME, cell-free
[23] = Metabolic stability in human liver microsomes assessed as unbound intrinsic clearance; assay type: ADME, Microsome
[24] = Plasma clearance in iv dosed mouse; assay type: ADME, organism-based
[25] = AUC in CB17 SCID-Beige mouse subcutaneously inoculated with WSUDLCL2 cells at 100 mg/kg, ip; assay type: ADME, organism-based; set-up: dose 100 mg/kg, route ip; settings: in vivo
[26] = Aqueous solubility of the compound at pH 7; assay type: physicochemical
[27] = Cmax in CB17 SCID-Beige mouse subcutaneously inoculated with WSUDLCL2 cells at 100 mg/kg, sc; assay type: ADME, organism-based; set-up: dose 100 mg/kg, route sc; settings: in vivo
[28] = Aqueous solubility of the compound at pH 1; assay type: physicochemical
[29] = Half life in CB17 SCID-Beige mouse subcutaneously inoculated with WSUDLCL2 cells at 100 mg/kg, sc; assay type: ADME, organism-based; settings: in vivo
[30] = Half life in CB17 SCID-Beige mouse subcutaneously inoculated with WSUDLCL2 cells at 100 mg/kg, ip; assay type: ADME, organism-based; settings: in vivo
[31] = AUC in CB17 SCID-Beige mouse subcutaneously inoculated with WSUDLCL2 cells at 100 mg/kg, sc; assay type: ADME, organism-based; set-up: dose 100 mg/kg, route sc; settings: in vivo
[32] = Cmax in CB17 SCID-Beige mouse subcutaneously inoculated with WSUDLCL2 cells at 100 mg/kg, ip; assay type: ADME, organism-based; set-up: dose 100 mg/kg, route ip; settings: in vivo
[33] = test system: HT-1080; assay: Induction of ferroptosis in GPX4-dependent human HT-1080 cells assessed as cell viability measured immediately after addition of compound by time-course cell viability assay; assay type: functional, cell-based
[34] = molecular target: Phospholipid hydroperoxide glutathione peroxidase GPX4 (Mus musculus) (UniProt O70325); assay: Target engagement at GPX4 in mouse 4T1 cells assessed as mass change between covalently bound protein and unbound protein at 0.01 to 1 ug/ml measured after 2 hrs by Western blot analysis; assay type: cell-based; settings: dose 0.01-1 µg/ml
[35] = Half life in CB17 SCID-Beige mouse subcutaneously inoculated with WSUDLCL2 cells at 30 mg/kg, ip; assay type: ADME, organism-based; settings: in vivo
[36] = Cmax in CB17 SCID-Beige mouse subcutaneously inoculated with WSUDLCL2 cells at 30 mg/kg, ip; assay type: ADME, organism-based; set-up: dose 30 mg/kg, route ip; settings: in vivo
[37] = AUC in CB17 SCID-Beige mouse subcutaneously inoculated with WSUDLCL2 cells at 30 mg/kg, ip; assay type: ADME, organism-based; set-up: dose 30 mg/kg, route ip; settings: in vivo

In the case of `COC(=O)c1ccc([C@H]2c3[nH]c4ccccc4c3CCN2C(=O)CCl)cc1`, the half-life [1] is reported as 0.2 h, the half-life [2] is reported as 1 h and the EC50 [3] is reported as 1390 nM.

For `COC(=O)[C@H]1Cc2c([nH]c3ccccc23)[C@H](c2ccc(S(C)(=O)=O)cc2)N1C(=O)CCl`, the EC50 [4] was 490 nM, the EC50 [5] was 850 nM and the Activity [6] was “inactive”. The EC50 [7] was 90 nM, the Activity [8] was “Active” and the Activity [9] was “Active”. For the same compound, the EC50 [10] was 770 nM, the Activity [11] was “inactive” and the Activity [12] was “inactive”. For the same compound, the EC50 [13] was 4740 nM, the Activity [14] was “Active” and the fold change (FC) [14] was 8. The EC50 [15] was 170 nM, the EC50 [16] was 520 nM and the Activity [17] was “Active”. It also gave an EC50 [18] of 270 nM, an EC50 [19] of 1260 nM and an EC50 [3] of 117 nM. For the same compound, the Activity [20] was “Active”.

For `COC(=O)[C@H]1Cc2c([nH]c3ccccc23)[C@H](c2ccccc2)N1C(=O)CCl`, the EC50 [13] was > 10000 nM and the EC50 [3] was 116 nM.

Compound `Cc1noc([C@H]2Cc3c([nH]c4ccccc34)[C@H](c3ccccc3)N2C(=O)CCl)n1` has a CL free [21] of 910 mL/min/kg, a fraction unbound [22] of 0.013 and a CL free [23] of 118 mL/min/kg. The half-life [1] was 2.68 h, the EC50 [13] was > 10000 nM and the half-life [2] was 6.73 h. The EC50 [3] was 44 nM.

`COC(=O)[C@H]1Cc2c([nH]c3ccccc23)[C@H](c2ccc(OC)cc2)N1C(=O)CCl` gave a CL free [21] of 2050 mL/min/kg, a fraction unbound [22] of 0.068 and a CL free [23] of 375 mL/min/kg. The half-life [1] was 4.02 h, the EC50 [13] was > 10000 nM and the half-life [2] was 13 h. The EC50 [3] was 127 nM.

With `COC(=O)[C@H]1Cc2c([nH]c3ccccc23)[C@H](c2ccccc2)N1C(C)=O` the CL free [21] was 2682 mL/min/kg, the CL free [23] was 183 mL/min/kg and the clearance [24] was 50 mL/min/kg. For the same compound, the half-life [1] was 13.7 h and the half-life [2] was > 16 h.

For `COC(=O)[C@H]1Cc2c([nH]c3ccccc23)[C@H](c2ccc(F)cc2Cl)N1C(=O)CCl`, the EC50 [13] was > 10000 nM and the EC50 [3] was 28 nM.

`COC(=O)c1ccc([C@H]2c3[nH]c4ccccc4c3C[C@H](C(=O)OC)N2C(=O)CCl)cc1` showed an EC50 [4] of 750 nM, an EC50 [5] of 160 nM and an AUC [25] of 2.79 µg/h/mL. The solubility [26] was < 0.8 µM, the CL free [21] was 8720 mL/min/kg and the Cmax [27] was 480 ng/mL. The Activity [8] was “Active”, the solubility [28] was < 0.8 µM and the half-life [29] was 4.1 h. For the same compound, the half-life [30] was 1.8 h, the EC50 [10] was 1010 nM and the Activity [11] was “inactive”. For the same compound, the AUC [31] was 2.67 µg/h/mL, the CL free [23] was 195 mL/min/kg and the clearance [24] was 478 mL/min/kg. The Activity [12] was “inactive”, the half-life [1] was 0.167 h and the Cmax [32] was 650 ng/mL. It also gave an EC50 [15] of 60 nM, an EC50 [33] of 590 nM and an EC50 [16] of 880 nM. For the same compound, the Activity [34] was “Active”, the EC50 [18] was 80 nM and the half-life [2] was 14.6 h. The EC50 [19] was 1420 nM and the EC50 [3] was 80 nM.

Work on `COC(=O)[C@H]1Cc2c([nH]c3ccccc23)[C@H](c2ccc(C(F)(F)F)nc2)N1C(=O)CCl` yielded a CL free [21] of 1060 mL/min/kg, a CL free [23] of 147 mL/min/kg and a half-life [1] of 2.12 h. For the same compound, the EC50 [13] was > 10000 nM, the half-life [2] was 2.63 h and the EC50 [3] was 42 nM.

In the case of `COC(=O)[C@H]1Cc2c([nH]c3ccccc23)[C@H](c2ccc(C(F)(F)F)cc2)N1C(=O)CCl`, the solubility [26] is reported as < 0.8 µM, the CL free [21] is reported as 2962 mL/min/kg and the solubility [28] is reported as < 0.8 µM. For the same compound, the CL free [23] was 1420 mL/min/kg, the half-life [1] was 4.38 h and the EC50 [13] was 3250 nM. The half-life [35] was 1.4 h, the Cmax [36] was 410 ng/mL and the AUC [37] was 1.53 µg/h/mL. For the same compound, the half-life [2] was > 16 h and the EC50 [3] was 37 nM.

Work on `C#CC(=O)N1[C@@H](c2ccccc2)c2[nH]c3ccccc3c2C[C@@H]1C(=O)OC` yielded a half-life [1] of 0.317 h, a half-life [2] of 0.4 h and an EC50 [3] of 157 nM.

Compound `O=C([C@H]1Cc2c([nH]c3ccccc23)[C@H](c2ccccc2)N1C(=O)CCl)N1CCCC1` has a CL free [21] of 1640 mL/min/kg, a fraction unbound [22] of 0.061 and a CL free [23] of 292 mL/min/kg. The half-life [1] was 3.6 h, the EC50 [13] was > 10000 nM and the half-life [2] was 7.43 h. For the same compound, the EC50 [3] was 1760 nM.

Reference: ChEMBL document CHEMBL5375942, “Discovery of a Potent Chloroacetamide GPX4 Inhibitor with Bioavailability to Enable Target Engagement in Mice, a Potential Tool Compound for Inducing Ferroptosis In Vivo” (J Med Chem, 2023)
